The text below walks through data of patent US20240208950A1, “COMPOSITIONS AND METHODS FOR TREATMENT OF CERVICAL AND OVARIAN CANCER” (SOUTH DAKOTA BOARD OF REGENTS, priority 2021, published 2024).

For one assay, the system named is SiHa cells. Description: Colony formation assay, SiHa. It is filed as cell-based, human. Conditions: SiHa, 2.5, 5 and 7.5 μM. Here is the method:
FIGS. 5A and 5B show representative colony images of CaSki cells (FIG. 5A) and SiHa cells (FIG. 5B) treated with various concentrations of ORM-Br ranging from […]. FIGS. 5C and 5D represent the quantification of colony formation in CaSki cells (FIG. 5C) and SiHa cells (FIG. 5D) treated with various concentrations of ORM-Br ranging from 0 to 7.5 μM.
To determine the effect of Br-ORM on clonogenic potential of CaSki and SiHa cells, a colony formation assay was performed. In brief, 500 cells were seeded per well in a 6-well plate and allowed to stand for the next three days. The cells were treated with Br-ORM with different concentrations (2.5, 5, and 7.5 μM) for seven days and then followed by normal growth media. […] Colonies were fixed in methanol, stained with haematoxylin, and counted using UVP 810 software.
FIG. 13. […] Cell viability was assessed by MTS assay. […] Bar graphs indicating quantification of colony formation in CaSki (i), and SiHa (ii) cells of cervical cancer with respect to vehicle control. […] Briefly, cervical cancer cells were treated with Br-ORM (10 μM) for 24 hours and the apoptosis inducing effect of Br-ORM was analyzed by Annexin V staining. […] The equal loading of protein in each lane was determined by probing the blots with β-actin antibody (FIG. 13F). […] Br-ORM arrests cell cycle in G1/S phase as determined by flow cytometry. […]

In assay [1] the test system is CaSki cells derived xenograft tumors. Nature of the assay: Orthotopic xenograft mouse model of cervical cancer. The class given is in vivo, female athymic nude mice. Conditions: 250 μg/mice intra-tumoral.
In assay [2] the test system is cleaved PARP in SiHa cells. Nature of the assay: Western blot for cleavage of PARP, SiHa. It is filed as cell-based, human. Conditions: 24 hours. The method, then:
The effect of Br-ORM on protein expression in cervical cancer cells were determined by Western blot analysis by using specific antibodies.
It was observed that Br-ORM exerts potent growth inhibitory effects, so the effect of Br-ORM on apoptosis induction was further examined. Cervical cancer cells were treated with Br-ORM (10 μM) for 24 hours and the apoptosis inducing effect of Br-ORM was analyzed by Annexin V staining and Western blot analysis for cleavage in PARP protein.
FIG. 13. Br-ORM decreases proliferation and colony formation of cervical cancer cells. FIG. 13A. Effect of Br-ORM on cell viability of CaSki cells (i) and SiHa cells (ii). Briefly, cervical cancer cells were seeded (2500) in each well of 96-well plate and after overnight incubation; cells were treated with indicated concentrations of Br-ORM for 24 hours. Cell viability was assessed by MTS assay. […] Bar graphs indicating quantification of colony formation in CaSki (i), and SiHa (ii) cells of cervical cancer with respect to vehicle control. […] Briefly, cervical cancer cells were treated with Br-ORM (10 μM) for 24 hours and the apoptosis inducing effect of Br-ORM was analyzed by Annexin V staining. […] The equal loading of protein in each lane was determined by probing the blots with β-actin antibody (FIG. 13F). […] Br-ORM arrests cell cycle in G1/S phase as determined by flow cytometry. […]

[3] abbreviates: three times per week, vs control.

On to `COc1ccc2c(c1)OC(C)(C)C(c1ccc(Br)cc1)C2c1ccc(OCCN2CCCC2)cc1` (centres unmarked) [ORM-Br], for which, in the assay with SiHa cells, the “colony formation (clonogenic potential)” value is given as “suppresses the clonogenic potential”. Also, in the assay with SiHa cells (listed as Br-ORM), the “colony formation (clonogenic potential)” value is “significantly decreased the number of colonies”. In addition, in assay [1] (setting [3]), the tumor volume result is on record as “significantly (p<0.05) reduced” and the tumor weight result is “significantly (p<0.05) reduced”. Also, in assay [1] (excised tumors), the “expression of E-cadherin in xenograft tumors (IHC)” value was “increase in the expression of E-cadherin”; the “expression of miR-200a in excised xenograft tumors (in situ hybridization)” value is given as “Increased expression of miR-200a”; the “expression of β-catenin, vimentin, snail, slug, HPV-E6, HPV-E7, and PCNA in xenograft tumors (IHC)” value was “significant downregulation”. The “protein levels of cleaved PARP” value in assay [2] is reported as “dose dependently enhanced the protein levels of cleaved PARP”.
